{"source": "ChEMBL document CHEMBL3507680", "about": "“University of Dundee, Gates Library screen for HepG2 cell viability”", "assay": "Human HepG2 cell viability assay in 384 well format", "assay_type": "toxicity, cell-based", "set-up": "dose 125 nL, time 70.5 hour; concentration not given beside the values", "details": "HepG2 cells, read-out: Inhibition"}
{"smiles": "COc1cccc(Cn2cc(N3C(=O)CCC3=O)cn2)c1", "values": [{"measurement": "cytotoxicity at 70.5 h", "value": 3.42, "unit": "%"}]}
{"smiles": "CSc1ccc(CN(CCO)C(=O)CCc2cccc(F)c2)cc1", "values": [{"measurement": "cytotoxicity at 70.5 h", "value": -15.9, "unit": "%"}]}
{"smiles": "CC1(C)CN=C(N2CCN(CC3CCCCO3)CC2)S1", "note": "(configuration not stated)", "values": [{"measurement": "cytotoxicity at 70.5 h", "value": 0.00251, "unit": "%"}]}
{"smiles": "CCn1cc(CN2CCCn3nc(CNS(C)(=O)=O)cc3C2)c(C)n1", "values": [{"measurement": "cytotoxicity at 70.5 h", "value": 13.3, "unit": "%"}]}
{"smiles": "COC(=O)C1CCCN1C(=O)c1ccc(Br)cc1F", "note": "(configuration not stated)", "values": [{"measurement": "cytotoxicity at 70.5 h", "value": 12.6, "unit": "%"}]}
{"smiles": "CN(C)c1ccccc1C(=O)N1C[C@@H](CN2CCC(O)CC2)[C@@H](CO)C1", "values": [{"measurement": "cytotoxicity at 70.5 h", "value": 1.37, "unit": "%"}]}
{"smiles": "COc1cc(C2CC(=O)Nc3c2nc2n3CCCC2)ccc1O", "note": "(configuration not stated)", "values": [{"measurement": "cytotoxicity at 70.5 h", "value": -7.4, "unit": "%"}]}
{"smiles": "O=C(c1ccncc1)N1CCCC1c1cccc(Br)c1", "note": "(configuration not stated)", "values": [{"measurement": "cytotoxicity at 70.5 h", "value": 21.6, "unit": "%"}]}
{"smiles": "CCN(CC)C(=O)CCCNC(=O)c1csc(NC2CC2)n1", "values": [{"measurement": "cytotoxicity at 70.5 h", "value": -9.34, "unit": "%"}]}
{"smiles": "CC(=O)Nc1ncc(S(=O)(=O)Nc2ccc(F)cc2F)s1", "values": [{"measurement": "cytotoxicity at 70.5 h", "value": -0.452, "unit": "%"}]}
{"smiles": "O=C(CS(=O)(=O)Cc1ccccc1)NCc1ccccc1F", "values": [{"measurement": "cytotoxicity at 70.5 h", "value": 22.1, "unit": "%"}]}
{"smiles": "CCc1cc(=O)n(CC(=O)N2CCC(C)CC2)c(-c2cccc(F)c2)n1", "values": [{"measurement": "cytotoxicity at 70.5 h", "value": -3.1, "unit": "%"}]}
{"smiles": "O=C(Cc1ccc(F)cc1)NCCNS(=O)(=O)C1CCCC1", "values": [{"measurement": "cytotoxicity at 70.5 h", "value": -8.77, "unit": "%"}]}
{"smiles": "CCN(CC(C)C#N)C(=O)c1cccc(COc2ccc(C)nc2)c1", "note": "(configuration not stated)", "values": [{"measurement": "cytotoxicity at 70.5 h", "value": -4.47, "unit": "%"}]}
{"smiles": "CCCNc1ncc(C2CC(=O)NCc3nc4ccccn4c32)cn1", "note": "(configuration not stated)", "values": [{"measurement": "cytotoxicity at 70.5 h", "value": -8.46, "unit": "%"}]}
{"smiles": "Cc1cc(N2CCCC2c2nccnc2C)ncn1", "note": "(configuration not stated)", "values": [{"measurement": "cytotoxicity at 70.5 h", "value": -5.86, "unit": "%"}]}
{"smiles": "O=C1CCCN1CCN1CC[C@@]2(O)CCN(c3ncccn3)C[C@H]2C1", "values": [{"measurement": "cytotoxicity at 70.5 h", "value": 15.5, "unit": "%"}]}
{"smiles": "O=C1Nc2ccccc2CC12CCCN2Cc1cccnc1", "note": "(configuration not stated)", "values": [{"measurement": "cytotoxicity at 70.5 h", "value": -2.78, "unit": "%"}]}
{"smiles": "CN1CCCC2(CCN(S(=O)(=O)c3ccc(-c4cnco4)s3)C2)C1=O", "note": "(configuration not stated)", "values": [{"measurement": "cytotoxicity at 70.5 h", "value": -7.66, "unit": "%"}]}
{"smiles": "Cc1cnc2c(c1NCc1ccc(F)cc1)c(=O)n(C)c(=O)n2C", "values": [{"measurement": "cytotoxicity at 70.5 h", "value": 12.7, "unit": "%"}]}
{"smiles": "COCCN(C)C(=O)c1ccccc1-n1cc(CN(C)C)cn1", "values": [{"measurement": "cytotoxicity at 70.5 h", "value": -5.25, "unit": "%"}]}
{"smiles": "Cn1cc(-c2ncc3c(c2C(=O)O)CCN(CC2CC2)C3)cn1", "values": [{"measurement": "cytotoxicity at 70.5 h", "value": -1.4, "unit": "%"}]}
{"smiles": "CCO[C@@H]1CCN(C(=O)c2cnc(C)cn2)[C@@H]1Cc1cnn(C)c1", "values": [{"measurement": "cytotoxicity at 70.5 h", "value": -11.6, "unit": "%"}]}
{"smiles": "Cc1ccc(Cl)cc1N1CCN(CC(=O)NCc2ccco2)CC1", "values": [{"measurement": "cytotoxicity at 70.5 h", "value": 7.45, "unit": "%"}]}
{"smiles": "Cc1ccc(O)c(C(=O)N2CCCC2CC(=O)c2cnn(C)c2)c1", "note": "(configuration not stated)", "values": [{"measurement": "cytotoxicity at 70.5 h", "value": -4.97, "unit": "%"}]}
{"smiles": "O=C(COc1ccc2c(c1)CCC2)NS(=O)(=O)c1cccnc1", "values": [{"measurement": "cytotoxicity at 70.5 h", "value": -10.3, "unit": "%"}]}
{"smiles": "Cc1nc(CNCc2ccc(OC34CCCN(CC3)C4)cc2)n[nH]1", "note": "(configuration not stated)", "values": [{"measurement": "cytotoxicity at 70.5 h", "value": -5.4, "unit": "%"}]}
{"smiles": "Cc1occc1C(=O)NCC1OCCc2cn(C)nc21", "note": "(configuration not stated)", "values": [{"measurement": "cytotoxicity at 70.5 h", "value": -3.82, "unit": "%"}]}
{"smiles": "CCc1nc(CCNC(=O)Nc2cccc(C(=O)NC)c2C)cs1", "values": [{"measurement": "cytotoxicity at 70.5 h", "value": 9.84, "unit": "%"}]}
{"smiles": "O=C(Nc1ccncc1)NC1CCN(c2ccccc2Cl)C1=O", "note": "(configuration not stated)", "values": [{"measurement": "cytotoxicity at 70.5 h", "value": -5.27, "unit": "%"}]}
{"smiles": "COCCCC(=O)N1CCC(Nc2cccnn2)CC1", "values": [{"measurement": "cytotoxicity at 70.5 h", "value": -10.4, "unit": "%"}]}
{"smiles": "Cc1cc(C)n(C2CN(C(=O)c3cn4ccsc4n3)C2)n1", "values": [{"measurement": "cytotoxicity at 70.5 h", "value": 2.53, "unit": "%"}]}
{"smiles": "CN(C)C(=O)c1cn[nH]c1C1CCCN1Cc1c[nH]cn1", "note": "(configuration not stated)", "values": [{"measurement": "cytotoxicity at 70.5 h", "value": 0.232, "unit": "%"}]}
{"smiles": "OC1(Cn2ccnc2)CCN(C[C@]2(O)CCCN3CCCC[C@@H]32)CC1", "values": [{"measurement": "cytotoxicity at 70.5 h", "value": 11.3, "unit": "%"}]}
{"smiles": "c1ccc2ncc(CC3CNCCOC3)cc2c1", "note": "(configuration not stated)", "values": [{"measurement": "cytotoxicity at 70.5 h", "value": -0.7, "unit": "%"}]}
{"smiles": "Cc1cc2nc(SCC(=O)N3CCCCC3)n(C)c(=O)c2[nH]1", "values": [{"measurement": "cytotoxicity at 70.5 h", "value": 19.2, "unit": "%"}]}
{"smiles": "O=C(NCCC(O)c1cccs1)c1ccc(Br)o1", "note": "(configuration not stated)", "values": [{"measurement": "cytotoxicity at 70.5 h", "value": -10.7, "unit": "%"}]}
{"smiles": "N#CCCN(C(=O)CN1CCCC1C1CCCCC1)c1ccccc1", "note": "(configuration not stated)", "values": [{"measurement": "cytotoxicity at 70.5 h", "value": 11.9, "unit": "%"}]}
{"smiles": "CCCc1nc(C)c(C(=O)NCCNc2ncccc2C#N)s1", "values": [{"measurement": "cytotoxicity at 70.5 h", "value": 0.537, "unit": "%"}]}
{"smiles": "CCC(CNC(=O)c1nc(=O)[nH][nH]1)Oc1ccccc1C(F)(F)F", "note": "(configuration not stated)", "values": [{"measurement": "cytotoxicity at 70.5 h", "value": 1.22, "unit": "%"}]}
{"smiles": "O=C(NCCOCC(F)(F)F)c1ccc(-c2ccccc2)[nH]c1=O", "values": [{"measurement": "cytotoxicity at 70.5 h", "value": -7.3, "unit": "%"}]}
{"smiles": "Cc1c(-c2c(-c3ccccc3)ncn2[C@@H](C(=O)O)[C@H](C)O)cnn1C", "values": [{"measurement": "cytotoxicity at 70.5 h", "value": 3.82, "unit": "%"}]}
{"smiles": "Cc1cccc(C)c1Oc1ncccc1CNC(=O)C1(C)CCCNC1", "note": "(configuration not stated)", "values": [{"measurement": "cytotoxicity at 70.5 h", "value": -7.62, "unit": "%"}]}
{"smiles": "O=C(CN1CCCC1Cn1cccn1)NC1CCN(C2CC2)CC1", "note": "(configuration not stated)", "values": [{"measurement": "cytotoxicity at 70.5 h", "value": -2.29, "unit": "%"}]}
{"smiles": "Cc1ccc(C)c(-c2[nH]c3ccccc3c2C(=O)O)c1", "values": [{"measurement": "cytotoxicity at 70.5 h", "value": -12.7, "unit": "%"}]}
{"smiles": "CCn1c(C2CCNCC2)nn(CCn2cncn2)c1=O", "values": [{"measurement": "cytotoxicity at 70.5 h", "value": -6.69, "unit": "%"}]}
{"smiles": "CCn1ccc(CNC(=O)c2cc(OC)cc(OC)c2)n1", "values": [{"measurement": "cytotoxicity at 70.5 h", "value": -10.5, "unit": "%"}]}
{"smiles": "Cn1cc(CNCCc2nccs2)c(-c2cccnc2)n1", "values": [{"measurement": "cytotoxicity at 70.5 h", "value": -8.44, "unit": "%"}]}
{"smiles": "CCn1cnnc1C1CCN(C(=O)c2cccc(-n3cccc3)c2)CC1", "values": [{"measurement": "cytotoxicity at 70.5 h", "value": -2.68, "unit": "%"}]}
{"smiles": "CCSc1ccc(NC(=O)NC(C)c2c(C)nn(C)c2C)cn1", "note": "(configuration not stated)", "values": [{"measurement": "cytotoxicity at 70.5 h", "value": -13.5, "unit": "%"}]}
{"smiles": "COc1ccc(NC(=O)C(c2cccc(F)c2)N2CCOCC2)cc1", "note": "(configuration not stated)", "values": [{"measurement": "cytotoxicity at 70.5 h", "value": -8.8, "unit": "%"}]}
{"smiles": "CC(C)CCN1C2(CCN(c3ncccn3)C2)c2ccccc2S1(=O)=O", "note": "(configuration not stated)", "values": [{"measurement": "cytotoxicity at 70.5 h", "value": -11.6, "unit": "%"}]}
{"smiles": "c1cc2c(cc1Cn1cc(C3CCCNC3)nn1)CCCO2", "note": "(configuration not stated)", "values": [{"measurement": "cytotoxicity at 70.5 h", "value": -15.2, "unit": "%"}]}
{"smiles": "O=C(COc1ccc(C(F)(F)F)cc1)N1CCOCC1c1ncon1", "note": "(configuration not stated)", "values": [{"measurement": "cytotoxicity at 70.5 h", "value": -6, "unit": "%"}]}
{"smiles": "CC[C@@H]1N(Cc2ccc(F)cc2)CCC[C@]12CCC(=O)N2CCOC", "values": [{"measurement": "cytotoxicity at 70.5 h", "value": 10.3, "unit": "%"}]}
{"smiles": "COCCCN1Cc2cccc(NC(=O)C(C)(C)C)c2C1", "values": [{"measurement": "cytotoxicity at 70.5 h", "value": 31.1, "unit": "%"}]}
{"smiles": "O=C(NCc1ccccn1)[C@]12COC[C@H]1CN(C1CCC1)C2", "values": [{"measurement": "cytotoxicity at 70.5 h", "value": -10.3, "unit": "%"}]}
